Results: ChEMBL document CHEMBL1201861, “Genomics of Drug Sensitity in Cancer screening data, Wellcome Trust Sanger Institute”

How the values were obtained:
Assay in all cases: cells
KNS-81-FD = format: functional, cell-based, Homo sapiens; details: Homo sapiens, KNS-81-FD;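 note: growth inhibition of KNS-81-FD cells, read out with a cell viability assay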
Description: SANGER: Inhibition of human KNS-81-FD cell growth in a cell viability assay.

PA-1 = format: functional, cell-based, Homo sapiens; details: Homo sapiens, PA-1;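 note: IC50 for suppression of PA-1 cell proliferation, determined with a cell viability read-out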
Description: SANGER: Inhibition of human PA-1 cell growth in a cell viability assay.

HPAF-II = format: functional, cell-based, Homo sapiens; details: Homo sapiens, HPAF-II;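 note: growth inhibition of HPAF-II cells, read out with a cell viability assay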
Description: SANGER: Inhibition of human HPAF-II cell growth in a cell viability assay.

OVCAR-5 = format: functional, cell-based, Homo sapiens; details: Homo sapiens, OVCAR-5;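 note: growth inhibition of human OVCAR-5 cells, read out with a cell viability assay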
Description: SANGER: Inhibition of human OVCAR-5 cell growth in a cell viability assay.

SK-MES-1 = format: functional, cell-based, Homo sapiens; details: Homo sapiens, SK-MES-1;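 note: growth inhibition of human SK-MES-1 cells, read out with a cell viability assay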
Description: SANGER: Inhibition of human SK-MES-1 cell growth in a cell viability assay.

DMS-273 = format: functional, cell-based, Homo sapiens; details: Homo sapiens, DMS-273
Description: SANGER: Inhibition of human DMS-273 cell growth in a cell viability assay.

MOLT-16 = format: functional, cell-based; details: Homo sapiens;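 note: growth inhibition of human MOLT-16 cells, read out with a cell viability assay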
Description: SANGER: Inhibition of human MOLT-16 cell growth in a cell viability assay.

MZ2-MEL = format: functional, cell-based, Homo sapiens; details: Homo sapiens, MZ2-MEL;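 note: growth inhibition of MZ2-MEL cells read out with a cell viability assay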
Description: SANGER: Inhibition of human MZ2-MEL cell growth in a cell viability assay.

SW872 = format: functional, cell-based, Homo sapiens; details: Homo sapiens, SW872;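 note: growth inhibition of SW872 cells, read out by a viability assay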
Description: SANGER: Inhibition of human SW872 cell growth in a cell viability assay.

SK-MEL-28 = format: functional, cell-based; details: Homo sapiens;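 note: growth inhibition of human SK-MEL-28 cells, read out with a cell viability assay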
Description: SANGER: Inhibition of human SK-MEL-28 cell growth in a cell viability assay.

A3-KAW = format: functional, cell-based; details: Homo sapiens;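 note: growth inhibition of human A3-KAW cells, read out with a cell viability assay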
Description: SANGER: Inhibition of human A3-KAW cell growth in a cell viability assay.

SW837 = format: functional, cell-based, Homo sapiens; details: Homo sapiens, SW837;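 note: growth inhibition of SW837 cells, determined with a cell viability assay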
Description: SANGER: Inhibition of human SW837 cell growth in a cell viability assay.

CAL-54 = format: functional, cell-based, Homo sapiens; details: Homo sapiens, CAL-54;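 note: growth inhibition of CAL-54 cells, read out by a viability measurement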
Description: SANGER: Inhibition of human CAL-54 cell growth in a cell viability assay.

BT-474 = format: functional, cell-based, Homo sapiens; details: Homo sapiens, BT-474
Description: SANGER: Inhibition of human BT-474 cell growth in a cell viability assay.

NCI-H23 = format: functional, cell-based, Homo sapiens; details: Homo sapiens, NCI-H23;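 note: cell viability assay measuring growth inhibition of NCI-H23 cells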
Description: SANGER: Inhibition of human NCI-H23 cell growth in a cell viability assay.

TE-1 = format: functional, cell-based, Homo sapiens; details: Homo sapiens, TE-1;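 note: growth inhibition of the human TE-1 cell line, read out with a cell viability assay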
Description: SANGER: Inhibition of human TE-1 cell growth in a cell viability assay.

SK-MEL-2 = format: functional, cell-based, Homo sapiens; details: Homo sapiens, SK-MEL-2
Description: SANGER: Inhibition of human SK-MEL-2 cell growth in a cell viability assay.

647-V = format: functional, cell-based, Homo sapiens; details: Homo sapiens, 647-V;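 note: growth inhibition of 647-V cells, read out with a cell viability assay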
Description: SANGER: Inhibition of human 647-V cell growth in a cell viability assay.

H4 = format: functional, cell-based; details: Homo sapiens
Description: SANGER: Inhibition of human H4 cell growth in a cell viability assay.

UACC-893 = format: functional, cell-based, Homo sapiens; details: Homo sapiens, UACC-893
Description: SANGER: Inhibition of human UACC-893 cell growth in a cell viability assay.

KYSE-70 cell line = format: functional, cell-based, Homo sapiens; details: Homo sapiens, KYSE-70;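 note: cell viability assay read-out, with IC50 expressing suppression of KYSE-70 cell growth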
Description: SANGER: Inhibition of human KYSE-70 cell growth in a cell viability assay.

OVCAR-4 = format: functional, cell-based, Homo sapiens; details: Homo sapiens, OVCAR-4;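 note: growth inhibition of human OVCAR-4 cells, measured with a cell viability assay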
Description: SANGER: Inhibition of human OVCAR-4 cell growth in a cell viability assay.

HT-29 = format: functional, cell-based, Homo sapiens; details: Homo sapiens, HT-29;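 note: growth inhibition of human HT-29 cells, read out by a cell viability assay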
Description: SANGER: Inhibition of human HT-29 cell growth in a cell viability assay.

LB1047-RCC = format: functional, cell-based, Homo sapiens; details: Homo sapiens, LB1047-RCC;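 note: inhibition of cell growth, determined with a cell viability assay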
Description: SANGER: Inhibition of human LB1047-RCC cell growth in a cell viability assay.

HCC1419 = format: functional, cell-based, Homo sapiens; details: Homo sapiens, HCC1419;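 note: growth inhibition of human HCC1419 cells, read out as cell viability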
Description: SANGER: Inhibition of human HCC1419 cell growth in a cell viability assay.

MN-60 = format: functional, cell-based; details: Homo sapiens;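 note: growth inhibition of the MN-60 cell line, determined with a cell viability assay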
Description: SANGER: Inhibition of human MN-60 cell growth in a cell viability assay.

OCUB-M = format: functional, cell-based, Homo sapiens; details: Homo sapiens, OCUB-M;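 note: growth inhibition of the cancer cell line, read out through a cell viability assay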
Description: SANGER: Inhibition of human OCUB-M cell growth in a cell viability assay.

MIA PaCa-2 = format: functional, cell-based, Homo sapiens; details: Homo sapiens, MIA PaCa-2;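 note: growth inhibition of MIA PaCa-2 cells, read out with a cell viability assay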
Description: SANGER: Inhibition of human MIA-PaCa-2 cell growth in a cell viability assay.

P12-Ichikawa = format: functional, cell-based; details: Homo sapiens
NCI-H69 = format: functional, cell-based; details: Homo sapiens;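 note: growth inhibition of the cell line, read out with a cell viability assay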
Description: SANGER: Inhibition of human NCI-H69 cell growth in a cell viability assay.

DB = format: functional, cell-based; details: Homo sapiens
Description: SANGER: Inhibition of human DB cell growth in a cell viability assay.

NCI-H1793 = format: functional, cell-based, Homo sapiens; details: Homo sapiens, NCI-H1793;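 note: cell growth inhibition, read out by a cell viability assay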
Description: SANGER: Inhibition of human NCI-H1793 cell growth in a cell viability assay.

IST-MES1 = format: functional, cell-based, Homo sapiens; details: Homo sapiens, IST-MES1;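 note: growth inhibition of IST-MES1 cells, measured with a cell viability assay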
Description: SANGER: Inhibition of human IST-MES1 cell growth in a cell viability assay.

HT1197 = format: functional, cell-based, Homo sapiens, HT-1197; details: Homo sapiens, HT1197
Description: SANGER: Inhibition of human HT-1197 cell growth in a cell viability assay.

D-502MG = format: functional, cell-based, Homo sapiens; details: Homo sapiens, D-502MG
Description: SANGER: Inhibition of human D-502MG cell growth in a cell viability assay.

MeWo = format: functional, cell-based, Homo sapiens; details: Homo sapiens, MeWo;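 note: growth inhibition of MeWo cells, determined by a cell viability readout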
Description: SANGER: Inhibition of human Mewo cell growth in a cell viability assay.

LB771-HNC = format: functional, cell-based, Homo sapiens; details: Homo sapiens, LB771-HNC;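 note: growth inhibition of LB771-HNC human cells, read out with a cell viability assay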
Description: SANGER: Inhibition of human LB771-HNC cell growth in a cell viability assay.

HOP-92 = format: functional, cell-based, Homo sapiens; details: Homo sapiens, HOP-92;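 note: cell viability readout, with IC50 reflecting inhibition of HOP-92 cell growth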
Description: SANGER: Inhibition of human HOP-92 cell growth in a cell viability assay.

NCI-H1581 = format: functional, cell-based, Homo sapiens; details: Homo sapiens, NCI-H1581;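 note: cell growth inhibition read out by a viability assay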
Description: SANGER: Inhibition of human NCI-H1581 cell growth in a cell viability assay.

NOMO-1 = format: functional, cell-based; details: Homo sapiens;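 note: growth inhibition of human NOMO-1 cells measured by a cell viability assay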
Description: SANGER: Inhibition of human NOMO-1 cell growth in a cell viability assay.

NB6 = format: functional, cell-based, Homo sapiens; details: Homo sapiens, NB6;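 note: growth inhibition of NB6 cells, read out by a cell viability assay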
Description: SANGER: Inhibition of human NB6 cell growth in a cell viability assay.

SF-539 = format: functional, cell-based, Homo sapiens; details: Homo sapiens, SF-539;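 note: Read-out is a cell viability assay, with IC50 reflecting inhibition of cell growth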
Description: SANGER: Inhibition of human SF539 cell growth in a cell viability assay.

MPP-89 = format: functional, cell-based, Homo sapiens; details: Homo sapiens, MPP-89;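 note: growth inhibition of human MPP-89 cells, read out with a cell viability assay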
Description: SANGER: Inhibition of human MPP-89 cell growth in a cell viability assay.

MHH-NB-11 = format: functional, cell-based, Homo sapiens; details: Homo sapiens, MHH-NB-11;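 note: growth inhibition of human MHH-NB-11 cells, read out by a cell viability assay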
Description: SANGER: Inhibition of human MHH-NB-11 cell growth in a cell viability assay.

5637 = format: functional, cell-based, Homo sapiens; details: Homo sapiens
Description: SANGER: Inhibition of human 5637 cell growth in a cell viability assay.

ESS-1 = format: functional, cell-based, Homo sapiens; details: Homo sapiens, ESS-1;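 note: growth inhibition of human ESS-1 cells, read out by a cell viability assay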
Description: SANGER: Inhibition of human ESS-1 cell growth in a cell viability assay.

VM-CUB-1 = format: functional, cell-based; details: Homo sapiens;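 note: cell viability assay measuring growth inhibition of the human VM-CUB-1 cell line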
Description: SANGER: Inhibition of human VM-CUB-1 cell growth in a cell viability assay.

ES6 = format: functional, cell-based, Homo sapiens; details: Homo sapiens, ES6;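 note: growth inhibition of human ES6 cells, read out with a cell viability assay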
Description: SANGER: Inhibition of human ES6 cell growth in a cell viability assay.

In the case of O=C(c1cc(Cc2n[nH]c(=O)c3ccccc23)ccc1F)N1CCN(C(=O)C2CC2)CC1 [OLAPARIB], the IC50 (KNS-81-FD) is reported as > 5000 nM, the IC50 (PA-1) is reported as 4250 nM and the IC50 (HPAF-II) is reported as > 5000 nM. The IC50 (OVCAR-5) was > 5000 nM, the IC50 (SK-MES-1) was > 5000 nM and the IC50 (DMS-273) was > 5000 nM. The IC50 (MOLT-16) was > 5000 nM, the IC50 (MZ2-MEL) was > 5000 nM and the IC50 (SW872) was > 5000 nM. The IC50 (SK-MEL-28) was > 5000 nM, the IC50 (A3-KAW) was > 5000 nM and the IC50 (SW837) was > 5000 nM. For the same compound, the IC50 (CAL-54) was > 5000 nM, the IC50 (BT-474) was > 5000 nM and the IC50 (NCI-H23) was > 5000 nM. For the same compound, the IC50 (TE-1) was > 5000 nM, the IC50 (SK-MEL-2) was > 5000 nM and the IC50 (647-V) was > 5000 nM. The IC50 (H4) was 4890 nM, the IC50 (UACC-893) was > 5000 nM and the IC50 (KYSE-70 cell line) was > 5000 nM. For the same compound, the IC50 (OVCAR-4) was > 5000 nM, the IC50 (HT-29) was > 5000 nM and the IC50 (LB1047-RCC) was > 5000 nM. The IC50 (HCC1419) was > 5000 nM, the IC50 (MN-60) was > 5000 nM and the IC50 (OCUB-M) was > 5000 nM. For the same compound, the IC50 (MIA PaCa-2) was > 5000 nM, the IC50 (P12-Ichikawa) was > 5000 nM and the IC50 (NCI-H69) was > 5000 nM. The IC50 (DB) was 3650 nM, the IC50 (NCI-H1793) was > 5000 nM and the IC50 (IST-MES1) was > 5000 nM. For the same compound, the IC50 (HT1197) was > 5000 nM, the IC50 (D-502MG) was > 5000 nM and the IC50 (MeWo) was > 5000 nM. The IC50 (LB771-HNC) was > 5000 nM, the IC50 (HOP-92) was > 5000 nM and the IC50 (NCI-H1581) was > 5000 nM. For the same compound, the IC50 (NOMO-1) was > 5000 nM, the IC50 (NB6) was > 5000 nM and the IC50 (SF-539) was > 5000 nM. For the same compound, the IC50 (MPP-89) was > 5000 nM, the IC50 (MHH-NB-11) was > 5000 nM and the IC50 5637 was > 5000 nM. For the same compound, the IC50 (ESS-1) was > 5000 nM, the IC50 (VM-CUB-1) was > 5000 nM and the IC50 (ES6) was > 5000 nM.

CN(Cc1cnc2nc(N)nc(N)c2n1)c1ccc(C(=O)N[C@@H](CCC(=O)O)C(=O)O)cc1 [METHOTREXATE] was tested, and the IC50 (KNS-81-FD) was > 200 nM, the IC50 (PA-1) was > 200 nM and the IC50 (HPAF-II) was > 200 nM. The IC50 (OVCAR-5) was > 200 nM, the IC50 (SK-MES-1) was > 200 nM and the IC50 (DMS-273) was > 200 nM. For the same compound, the IC50 (MOLT-16) was 11.6 nM, the IC50 (MZ2-MEL) was > 200 nM and the IC50 (SW872) was > 200 nM. The IC50 (SK-MEL-28) was > 200 nM, the IC50 (A3-KAW) was 8.92 nM and the IC50 (SW837) was > 200 nM. The IC50 (CAL-54) was > 200 nM, the IC50 (BT-474) was > 200 nM and the IC50 (NCI-H23) was > 200 nM. For the same compound, the IC50 (TE-1) was > 200 nM, the IC50 (SK-MEL-2) was > 200 nM and the IC50 (647-V) was > 200 nM. The IC50 (H4) was > 200 nM, the IC50 (UACC-893) was > 200 nM and the IC50 (KYSE-70 cell line) was > 200 nM. For the same compound, the IC50 (OVCAR-4) was > 200 nM, the IC50 (HT-29) was 153 nM and the IC50 (LB1047-RCC) was > 200 nM. The IC50 (HCC1419) was > 200 nM, the IC50 (MN-60) was 65.7 nM and the IC50 (OCUB-M) was > 200 nM. The IC50 (MIA PaCa-2) was > 200 nM, the IC50 (P12-Ichikawa) was 41.3 nM and the IC50 (DB) was 21.3 nM. For the same compound, the IC50 (NCI-H1793) was > 200 nM, the IC50 (IST-MES1) was > 200 nM and the IC50 (HT1197) was > 200 nM. For the same compound, the IC50 (D-502MG) was > 200 nM, the IC50 (MeWo) was > 200 nM and the IC50 (LB771-HNC) was > 200 nM. The IC50 (HOP-92) was > 200 nM, the IC50 (NCI-H1581) was > 200 nM and the IC50 (NOMO-1) was 16.2 nM. For the same compound, the IC50 (NB6) was > 200 nM, the IC50 (SF-539) was > 200 nM and the IC50 (MPP-89) was > 200 nM. For the same compound, the IC50 (MHH-NB-11) was > 200 nM, the IC50 5637 was > 200 nM and the IC50 (ESS-1) was > 200 nM. The IC50 (VM-CUB-1) was > 200 nM and the IC50 (ES6) was > 200 nM.
